Reference: publication PMC3975428, “Dimers of G-Protein Coupled Receptors as Versatile Storage and Response Units” (International Journal of Molecular Sciences, 2014)
No end group written: not given here.

B1: NPY(22–36) (peptide, UniProt P01303 50-64, looked up)
peptide: SALRHYINLITRQRY
notes: neuropeptide Y, residues 22-36; also called neuropeptide Y(22–36)
B2: human neuropeptide Y Y2 receptor expressed in CHO cells (receptor, UniProt P49146 1-381, looked up)
chain: MGPIGAEADENQTVEEMKVEQYGPQTTPRGELVPDPEPELIDSTKLIEVQVVLILAYCSIILLGVIGNSLVIHVVIKFKSMRTVTNFFIANLAVADLLVNTLCLPFTLTYTLMGEWKMGPVLCHLVPYAQGLAVQVSTITLTVIALDRHRCIVYHLESKISKRISFLIIGLAWGISALLASPLAIFREYSLIEIIPDFEIVACTEKWPGEEKSIYGTVYSLSSLLILYVLPLGIISFSYTRIWSKLKNHVSPGAANDHYHQRRQKTTKMLVCVVVVFAVSWLPLHAFQLAVDIDSQVLDLKEYKLIFTVFHIIAMCSTFANPLLYGWMNSNYRKAFLSAFRCEQRLDAIHSEVSVTFKAKKNLEVRKNSGPNDSFTEATNV
notes: neuropeptide Y receptor type 2 (Y2), human cDNA in pcDNA 3.1+; Assayed in particulates (membranes) of the cells and in digitonin/cholate lysates of them; also called hY2 receptor; CHO-Y2; source: CHO-K1, stably expressed (cDNA in pcDNA 3.1+), postnuclear particulates, solubilised with digitonin and cholate

Assays:
[1] = tested on: 180 kDa heteropentamer (Y2 receptor dimer, G-protein trimer); experiment: Nucleotide labeling / conversion of 180 kDa heteropentamer to 90 kDa Gi3α-receptor monomer; format: biochemical; conditions: 1–5 mM Mg^2+, micromolar GDP or GγS
Description: The receptors were labeled for 30 min at 25 °C in respective particulates (50 μg protein/assay), employing not more than 50 pM [^125I]-labeled agonist peptides (as stated in individual experiments). Higher molar inputs of agonist peptides would produce significant Gα activation within short exposures (e.g., [24, 53]). The basal assay buffer contained 0.2% proteinase-free bovine serum albumin, 20 mM hepes.NaOH (pH 7.4), 1 mM diisopropylfluorophosphate, 0.04% bacitracin, and 10 μg/mL each of proteinase inhibitors aprotinin, bestatin, chymostatin, leupeptin and pepstatin. Depending on experiment design, this was supplemented by 3 mM CaCl2 and 1 mM MgCl2, (buffer A) or by 1 mM Na EDTA, pH 7.4 (buffer B). The nucleotide site labeling at 200 pM [^35S]GγS was for 30 min at 28 °C after pre-activation for 30 min at 28 °C at 3 μM GDP in the basal buffer with 50 μM EDTA, 100 mM NaCl and 4 mM MgCl2, and without CaCl2 (buffer C). All subsequent operations were carried out at 0–5 °C. The assays were terminated by sedimentation for 10 min at 30,000× gmax, followed by surface wash of the pellets.
(§1) Rabbit kidney postmitochondrial particulates, rabbit piriform cortex and hypothalamic crude synaptosomes and CHO cell postnuclear particulates were prepared as described previously. After solubilization of particulates at 10 mM each of digitonin and sodium cholate in buffer A or B, the lysates were spun for 10 min at 1000× g to remove debris, and the supernatants sedimented for periods indicated in figure captions at 218,000× gmax through linear 5%–20% sucrose gradients (10 mL, made in buffer A). The gradients were divided by bottom dripping in 23 fractions of 0.45 mL. The sedimentation positions were calibrated with [^125I]-labeled bovine γ-globulin (158 kDa), human iron-saturated transferrin (75 kDa) and ovalbumin (44 kDa), and with colorized myosin (211 kDa), producing a linear relation of migration to molecular weight (R^2 > 0.99). […]

[2] = tested on: 180 kDa heteropentamer and 90 kDa monomer-Gi α of Y2 receptor; experiment: Stability of agonist binding of 180 kDa and 90 kDa Y2 complexes to reagents; format: biochemical, rabbit; conditions: for sensitivity of 180 kDa labeled material to K^+: 0.3 M K^+ (as KCl or KI)
Text: Figure 6. Stability and affinity of agonist binding differs greatly for heteropentamer and monomer forms of the rabbit kidney Y2 receptor. (A) Y2 agonist attached to 180 kDa heteropentamer is recovered completely by 10% polyethyleneglycol (PEG) at 0.3 M K^+ (The data are averages of six gradients, ±1 S.E.).
The stability and affinity of agonist association with CHO-Y2 receptors could also be analyzed at the level of dimers and monomers by extraction and precipitation procedures coupled to competition binding assays (Figure 6).
The pellets were then counted in a scintillation counter.
(§2) Rabbit kidney postmitochondrial particulates, rabbit piriform cortex and hypothalamic crude synaptosomes and CHO cell postnuclear particulates were prepared as described previously. After solubilization of particulates at 10 mM each of digitonin and sodium cholate in buffer A or B, the lysates were spun for 10 min at 1000× g to remove debris, and the supernatants sedimented for periods indicated in figure captions at 218,000× gmax through linear 5%–20% sucrose gradients (10 mL, made in buffer A). The gradients were divided by bottom dripping in 23 fractions of 0.45 mL. The sedimentation positions were calibrated with [^125I]-labeled bovine γ-globulin (158 kDa), human iron-saturated transferrin (75 kDa) and ovalbumin (44 kDa), and with colorized myosin (211 kDa), producing a linear relation of migration to molecular weight (R^2 > 0.99).

[3] = tested on: aggregated Y2 receptor material (rabbit kidney and CHO-Y2 particulates); experiment: Release of aggregated Y2 receptor material (bottom of 5%–20% gradients); format: biochemical; conditions: 10 μM, preliminary experiment
Description: More than 30% of the Y2 binding in rabbit kidney postmitochondrial particulates, and more than 20% in the CHO-Y2 postnuclear particulates sediments to the bottom of 5%–20% sucrose gradients over 18 h at 218,000× gmax, corresponding to weight in excess of 1000 kDa. A large part of this material sediments at 30,000× gmax over 10 min, and could be considered as aggregated. […] This preliminary experiment points to potential of such procedures in quantitation of effector-associated receptors at the level of dimers and monomers. There also is a promise of gaining more insight on the size and significance of receptor oligomers incorporating more than two receptor monomers.
as §2

[4] = tested on: Y2 receptor aggregates (rabbit kidney); experiment: Y2 receptor aggregates, sedimentation after treatment, rabbit kidney particulates; format: biochemical; conditions: 15 min at 24 °C
Description: (§3) Figure 5. […] Particulates from rabbit kidney (A) and anterior hypothalamus (B) were incubated with 20 μM GγS or 10 μM U73122 for 15 min at 24 °C, sedimented, resuspended, labeled with 50 pM [^125I]hPYY(3–36) for 15 min at 24 °C, resedimented, lysed at 10 mM each digitonin and cholate and sedimented through a 10%–30% linear sucrose gradient for 6 h at 218,000× g and 5 °C, followed by gradient fractionation and counting. TEXT PRINTED IN THE PICTURE: (A) GγS: Bottom count: 10.8% | (A) U73122: Bottom count: 25.4% | (B) GγS: Bottom count: 8.98 % | (B) U73122: Bottom count: 17.4 %
as §2

[5] = tested on: Y2 receptor aggregates (anterior hypothalamus); experiment: Y2 receptor aggregates, sedimentation after treatment, rabbit anterior hypothalamus particulates; format: biochemical; conditions: 10 μM, 15 min at 24 °C, 10%–30% gradient 6 h at 218,000× g
Description: as §3
as §1, with “mL.” for “mL. The sedimentation positions were calibrated with [^125I]-labeled bovine γ-globulin (158 kDa), human iron-saturated transferrin (75 kDa) and ovalbumin (44 kDa), and with colorized myosin (211 kDa), producing a linear relation of migration to molecular weight (R^2 > 0.99).”

[6] = molecular target: rabbit Y2 receptor, native (rabbit (endogenous in kidney cortex, hypothalamus, piriform cortex)); experiment: radioligand binding; aliquots of gradient fractions of labeled rabbit kidney particulates precipitated with 10% polyethyleneglycol-8000 at 300 mM KCl or KI and 50 μg/mL bovine γ-globulin, 10 min at 0–4 °C
endothelin-1 receptor = conditions: cited from earlier work
Text: (§4) The classical view of agonist binding assumes an attachment that is readily terminated by dilution or competition by ligands of higher affinity, such as competitive antagonists. The weak agonist binding for small ligand receptors, such as catecholamine receptors, greatly diminishes analytical options. This has signally contributed to the analytical success of covalent proteinaceous tags. However, many GPCRs with peptidic agonists show agonist attachments that are stable at least at low temperatures, and slow to dissociate even at 37 °C. Such stable (“quasi-irreversible”) binding was found for ...

[7] = molecular target: rabbit Y2 receptor, native (rabbit (endogenous in kidney cortex, hypothalamus, piriform cortex)); experiment: radioligand binding; competition of PYY(3–36) with [125I]PYY(3–36), rabbit kidney particulates, entire receptor complement
[8] = molecular target: rabbit Y2 receptor, native (rabbit (endogenous in kidney cortex, hypothalamus, piriform cortex)); experiment: radioligand binding; competition of PYY(3–36), rabbit kidney particulates after extraction with 8 mM cholate at 0–5 °C (>90% dimeric residue), trypsin up to 3 μg/mL
neuromedin U receptors = conditions: cited from earlier work
Text: as §4

Y1 receptor = conditions: cited from earlier work
Text: as §4

Y2 receptor = conditions: cited from earlier work
Text: The classical view of agonist binding assumes an attachment that is readily terminated by dilution or competition by ligands of higher affinity, such as competitive antagonists. The weak agonist binding for small ligand receptors, such as catecholamine receptors, greatly diminishes analytical options.

Y4 receptor = conditions: cited from earlier work
Text: as §4

[9] = tested on: human calcitonin receptor; conditions: cited from earlier work
Text: as §4

[10] = tested on: rabbit kidney Y2 receptor; experiment: PYY(3–36) binding to rabbit kidney Y2 receptor (heteropentamer and monomer forms)
Description: The receptors were labeled for 30 min at 25 °C in respective particulates (50 μg protein/assay), employing not more than 50 pM [^125I]-labeled agonist peptides (as stated in individual experiments). […] The basal assay buffer contained 0.2% proteinase-free bovine serum albumin, 20 mM hepes.NaOH (pH 7.4), 1 mM diisopropylfluorophosphate, 0.04% bacitracin, and 10 μg/mL each of proteinase inhibitors aprotinin, bestatin, chymostatin, leupeptin and pepstatin. Depending on experiment design, this was supplemented by 3 mM CaCl2 and 1 mM MgCl2, (buffer A) or by 1 mM Na EDTA, pH 7.4 (buffer B). The nucleotide site labeling at 200 pM [^35S]GγS was for 30 min at 28 °C after pre-activation for 30 min at 28 °C at 3 μM GDP in the basal buffer with 50 μM EDTA, 100 mM NaCl and 4 mM MgCl2, and without CaCl2 (buffer C). All subsequent operations were carried out at 0–5 °C. The assays were terminated by sedimentation for 10 min at 30,000× gmax, followed by surface wash of the pellets.

[11] = molecular target: B2; experiment: radioligand binding; competition against [125I]PYY(3–36) at the hY2 receptor; conditions not given; conditions: one partner purified
[12] = molecular target: the molecule itself; experiment: sucrose density gradient centrifugation; CHO-Y2 particulates preincubated in assay buffer at 27 °C (1 h or 3 h) or in ice (3 h), labeled 20 min at 27 °C with [125I]PYY(3–36), solubilised at 10 mM each digitonin and cholate, 5%–20% sucrose gradients, 18 h at 5 °C, 218,000 x gmax

Which “conversion of 180 kDa heteropentamer” value [1] does the source give for `Nc1nc2c(ncn2[C@@H]2O[C@H](COP(=O)(O)OP(=O)(O)O)[C@@H](O)[C@H]2O)c(=O)[nH]1` [GDP] here?
The value was “does convert to immunoprecipitable 90 kDa Gi3α-receptor monomer”.

With `[Cl-].[K+]` [KCl] as the molecule, how does the “effect on Y2 agonist bound to 90 kDa monomer-Gi α” value ([2]; 0.3 M KCl) read?
The value was “detached”.

What about the “sensitivity of 180 kDa labeled material to K^+” value [2] of the same molecule?
The value was “not sensitive”.

Which “sensitivity of 180 kDa labeled material to K^+” value [2] does the source give for `[I-].[K+]` [KI] here?
Its value is “not sensitive”.

Which “part of aggregated material released” value [3] does the source give for `COc1ccc2c(c1)CC[C@@H]1[C@@H]2CC[C@]2(C)[C@@H](NCCCCCCN3C(=O)C=CC3=O)CC[C@@H]12` [U73122] here?
Its value is “About a third”.

And the “main form yielded from Y2 receptor aggregates” value ([4]; particulates from rabbit tissues (kidney and anterior hypothalamus), GγS 20 μM or U73122 10 μM)?
Its value is “largely the heteropentamer”.

And the Bottom count ([4]; rabbit kidney, 10 μM, 10%–30% gradient 6 h at 218,000× g)?
Its Bottom count is 25.4%.

What about the Bottom count [5] of the same molecule?
The Bottom count was 17.4%.

Which “effect on Y2 agonist bound to 90 kDa monomer-Gi α” value ([2]; 8 mM cholate at 0–5 °C) does the source give for `C[C@H](CCC(=O)[O-])[C@H]1CC[C@H]2[C@@H]3[C@H](O)C[C@@H]4C[C@H](O)CC[C@]4(C)[C@H]3C[C@H](O)[C@]12C.[Na+]` [sodium cholate] here?
Its value is “detached”.

What about the “effect of sodium cholate on activated monomers” value ([2]; rabbit kidney particulates) of the same molecule?
The value was “removes activated monomers”.

With “[125I]human peptide YY(3–36) (from UniProt P10082 31-64)” as the molecule, how does the percent of the 180 kDa labeled material precipitated at 10% PEG [6] read?
Its percent of the 180 kDa labeled material precipitated at 10% PEG is greater than 80%.

With endothelin as the molecule, how does the “stability of agonist binding” value (endothelin-1 receptor) read?
The value was “quasi-irreversible”.

Which results are given for “human peptide YY(3–36) (from UniProt P10082 31-64)”?
IC50 [7]: 0.2 to 0.5 nM; IC50 [8]: 0.01 nM

With “neuromedin U (FRVDEEFQSPFASQSRGYFLFRPRN; ends and bridges not checked; UniProt P48645 142-166, looked up) [agonist at its receptors]” as the molecule, how does the “stability of agonist binding” value (neuromedin U receptors) read?
The value was “quasi-irreversible”.

With neuropeptide Y [NPY] as the molecule, how does the “stability of agonist binding” value (Y1 receptor) read?
Its value is “quasi-irreversible”.

And the “stability of agonist binding” value (Y2 receptor)?
Its value is “quasi-irreversible”.

With pancreatic polypeptide as the molecule, how does the “stability of agonist binding” value (Y4 receptor) read?
The value was “quasi-irreversible”.

For salmon calcitonin, which “stability of agonist binding” value [9] is on record?
The value was “quasi-irreversible”.

With trypsin as the molecule, how does the “Bmax for the dimeric Y2 in the cholate residue” value ([10]; above 0.3 μg trypsin) read?
Its value is “increases significantly”.

What about the “effect on affinity of PYY(3–36) binding to dimeric residue” value ([10]; trypsin at up to 3 μg/mL, cholate residue) of the same molecule?
The value was “unaffected”.

And the “stability of heteropentamers to trypsin” value ([2]; rabbit kidney particulates)?
The value was “considerable stability”.

With B1 as the molecule, how does the Kd [11] read?
Its Kd is 6.2 ± 1.2 nM.

With B2 as the molecule, how does the “stoichiometry N” value [12] read?
The value was 2.
